Experimental data taken from patent US7943176B2, “Oral dosage form for propiverine or its pharmaceutically acceptable salts with an extended release of the active ingredient” (Apogepha Arzneimittel GmbH, priority 2001, dated 2011).
Values joined by “and” are separate entries in the source; they are usually repeats but may differ in a detail not shown here. Identical values can stand only once. Counter-ions that a name gives are not always drawn. Like-named read-outs stand apart in the source and are kept apart here. One block for each molecule: values may come before it.

Tests used:
[1] = Distribution coefficient of propiverine-hydrochloride (1-octanol/water, 25° C.); type: physicochemical
Description: (§1) The distribution coefficient and the solubility of propiverine-hydrochloride in dependence of the pH value are known (determination of the amount of propiverine in the aqueous phase via HPLC).
Distribution coefficient of propiverine-hydrochloride (1-octanol/water, 25° C.)

[2] = Solubility of propiverine-hydrochloride in water; type: physicochemical; conditions: aqueous buffer
Text: as §1
Solubility of propiverine-hydrochloride in water

[3] = water, 25° C.; cited from earlier work
[4] = water, pH=4.0-8.0; cited from earlier work

Log [K] ([1]; pH 1.0): 1.3 | K (distribution coefficient) ([1]; pH 1.0, mean of three): 22 | Log [K] ([1]; pH 5.0): 1.1 | K (distribution coefficient) ([1]; pH 5.0, mean of three): 13 | Log [K] ([1]; pH 6.0): 2.4 | K (distribution coefficient) ([1]; pH 6.0, mean of three): 227 | Log [K] ([1]; pH 6.5): 2.9 | K (distribution coefficient) ([1]; pH 6.5, mean of three): 884 | Log [K] ([1]; pH 6.8): 3.8 | K (distribution coefficient) ([1]; pH 6.8, mean of three): 6904 | Log [K] ([1]; pH 7.0): 4.0 | K (distribution coefficient) ([1]; pH 7.0, mean of three): 10346 | Log [K] ([1]; pH 7.2): 4.2 | K (distribution coefficient) ([1]; pH 7.2, mean of three): 15438 | Log [K] ([1]; pH 7.5): 4.4 | K (distribution coefficient) ([1]; pH 7.5, mean of three): 26068 | Log [K] ([1]; pH 8.0): 4.7 | K (distribution coefficient) ([1]; pH 8.0, mean of three): 52372 | solubility ([2]; pH 5.8, 24 ° C.): > 200 mg/mL | solubility ([2]; pH 5.8, 37 ° C.): 368 mg/mL | solubility ([2]; pH 6.0, 24 ° C.): 209 mg/mL | solubility ([2]; pH 7.0, 24 ° C.): 1.2 mg/mL | solubility ([2]; pH 7.2, 24 ° C.): 1.1 mg/mL
Structure (SMILES): CCCOC(C(=O)OC1CCN(C)CC1)(c1ccccc1)c1ccccc1 [propiverine-hydrochloride]

Structure (SMILES): CCCOC(C(=O)OC1CCN(C)CC1)(c1ccccc1)c1ccccc1 [propiverine, 2,2-diphenyl-2-(1-propoxy)acetic acid(1-methyl-piperid-4-yl)ester]
pKa value [3]: 7.35±0.1

Structure (SMILES): CCCOC(C(=O)OC1CC[N+](C)([O-])CC1)(c1ccccc1)c1ccccc1 (stereo not shown) [Propiverine-N-oxide, propiverine-N-oxide]
solubility [4]: > 127 mg/mL and > 99 mg/mL
